# Patent publication US20060046976A1, “Method for increasing the bone mineral density and bone micro-architecture or connectivity of a mammal using N-acylated glucosamines” (priority 2004, published 2006)
# Tests used:
# ovariectomised rats = assay: Femoral and spine BMD by DXA in ovariectomised rats fed GlcNBu; format: in vivo, rat; conditions: 200 mg GlcNBu by mouth daily, 6 months
# Text: This investigation was designed to test the effects of GlcNBu on the BMD of the femurs in an ovariectomised rat model. The experiments performed are described as follows.
# FIGS. 1A and 1B show the effect of GlcNBu feeding on femoral BMD with time, over six months, in the ovariectomized rat. Both the top and bottom panels show the mean total designated herein as global BMD of the femurs for the 8 animals in each group, with time. The actual BMD values are shown on the vertical axes. FIG. 1A Glc-O represents the data from the ovariectomised rats fed with glucose and FIG. 1B GlcNBu-O represents data from the ovariectomised rats fed with GlcNBu. The sequential DXA scans for estimating BMD at times 0, 2 months, 4 months and 6 months are illustrated on the horizontal axis and designated as Sequential Scan number 1.0, 2.0. 3.0 and 4.0, respectively.
# Sixteen ovariectomised rats (Charles River Laboratories), approximately 200 g in weight, were randomized into two groups. The control group received 200 mg of glucose, by mouth as single daily doses and the GlcNBu-treated group received 200 mg of GlcNBu by mouth, as single daily doses, for a total period of six (6) months. A similar group of non-ovariectomised animals was fed with GlcNBu or glucose at the same doses. […] Consistent position of the femurs was assured with a pre-determined grid. […]
# SCW-arthritis rats = assay: Micro-CT three-dimensional trabecular bone measurements of proximal tibia, SCW-arthritis rats; format: in vivo, Lewis type rats
# Text: In this experiment performed and described herein, there were four groups of Lewis type rats, consisting of eight (8) animals in each group. Lewis type rats had experimental arthritis induced by a single intra-peritoneal injection of streptococcal cell wall antigen (SCW). This type of arthritis has an acute and chronic phase and affects mostly the distal joints in the hind limbs of the animals, and, less so, the knees and hips. Groups 1-3, inclusive, had inflammatory arthritis induced. The compound used in the experiment was used to supplement normal rat chow feed on a daily basis. Feed and water were unrestricted. Group I feed was supplemented with the compound shown in formula II, abbreviated as GlcNBu, at a dose of 200mg/kg/day. Group 3 feed was supplemented with GlcNBu at 20 mg/kg/day. At the end of 6 weeks, the animals were sacrificed, the femurs and tibias were excised, fixed in formalin and the BMD, micro-CT measurements, 3-dimentional measurements and two-dimentional subchondral bone analysis were carried out, by the methods detailed below. • BMD. All the dissected femurs and tibiae were scanned with dual energy x-ray absorptiometry (DXA) were measured at the distal femur, and proximal tibia using a user defined region of interest (ROI). • Micro-CT imaging protocol. The fixed left tibiae were scanned with micro-CT scanner (Explore Locus SP micro CT Scanner, GE Healthcare). The tibias were placed in a water filled specimen tube in a firmed position such that the main axis was kept as parallel as possible to the Z-axis of the micro-CT image coordinate system. The reconstructed tibia images were analyzed with MicroView 2.0 software (GE Healthcare, London, ON) in two and three dimensions. • Three-dimensional trabecular bone measurements. Three dimensional bone analyses were conducted using three selected ROIs using MicroView 2.0 analysis software. On 3D analysis, the tissue volume (3D-TV, mm3) and trabecular bone volume (3D-BV, mm3) were measured directly, and the fractional trabecular bone volume (3D-BV/TV, %) was calculated. […] Another parameter obtained is the structure model index (SMI). The SMI represented the plate-rod characteristics of trabecular structure. In this measure, a negative number is indicative of a plate-like structure containing holes, 0 represents an ideal plate-like structure while 3 represents the ideal rod (cylindrical) structure. Larger SMI values indicate that trabecular structure contains a more rod-like structure in older or diseased bone. • Three-dimensional isosurface. A 3-D isosurface image of each tibia was obtained by a volume-rendering function in MicroView to qualitatively examine the erosive damage in the bone surface. • Two-dimensional subchondral bone analysis. Three coronal sections of proximal tibia were obtained from each 3-D reconstructed tibia image: anterior, central, and posterior (1 mm apart). The subchondral trabecular bone structure and connectivity in the epiphyseal region of the proximal tibia was analyzed using an image processing and analysis system (Quantimet 570, Leica) on the 2-D micro-CT images.
# [1] = SCW + GlcNBu High, lateral epiphysis of proximal tibia
# [2] = SCW + GlcNBu High, medial epiphysis of proximal tibia
# [3] = SCW + GlcNBu High, metaphysis of proximal tibia
# [4] = SCW + GlcNBu Low, lateral epiphysis of proximal tibia
# [5] = SCW + GlcNBu Low, medial epiphysis of proximal tibia
# [6] = SCW + GlcNBu Low, metaphysis of proximal tibia
smiles,measurement,setting,value
"CCCC(=O)N[C@H]1C(O)O[C@H](CO)[C@@H](O)[C@@H]1O (stereo partly drawn) [GlcNBu, N-butyryl-D-glucosamine]",BMD of the spines vs glucose-fed,ovariectomised rats; data not shown,the differences were not reach statistical significance
same,femoral BMD (global) plateau vs control (glucose-fed) rats,"ovariectomised rats; plateau after 4 months, p<0.05",significantly higher
same,correction in SMI values compared to the untreated group,"SCW-arthritis rats; GlcNBu treated groups, three tested areas",15-33%
same,Trabecular Bone Volume,SCW-arthritis rats; [1],36.9 ± 3.7%
same,Trabecular Number,SCW-arthritis rats; [1],6.0 ± 0.6
same,Trabecular Thickness,SCW-arthritis rats; [1],0.054 ± 0.008 mm
same,Trabecular Bone Volume,SCW-arthritis rats; [2],36.3 ± 4.8%
same,Trabecular Number,SCW-arthritis rats; [2],5.1 ± 0.7
same,Trabecular Thickness,SCW-arthritis rats; [2],0.066 ± 0.014 mm
same,Trabecular Bone Volume,SCW-arthritis rats; [3],32.6 ± 4.7%
same,Trabecular Number,SCW-arthritis rats; [3],8.2 ± 1.5
same,Trabecular Thickness,SCW-arthritis rats; [3],0.034 ± 0.004 mm
same,Trabecular Bone Volume,SCW-arthritis rats; [4],33.7 ± 2.7%
same,Trabecular Number,SCW-arthritis rats; [4],5.8 ± 0.5
same,Trabecular Thickness,SCW-arthritis rats; [4],0.052 ± 0.008 mm
same,Trabecular Bone Volume,SCW-arthritis rats; [5],33.1 ± 3.0%
same,Trabecular Number,SCW-arthritis rats; [5],5.0 ± 0.4
same,Trabecular Thickness,SCW-arthritis rats; [5],0.062 ± 0.011 mm
same,Trabecular Bone Volume,SCW-arthritis rats; [6],34.4 ± 9.4%
same,Trabecular Number,SCW-arthritis rats; [6],7.7 ± 1.3
same,Trabecular Thickness,SCW-arthritis rats; [6],0.034 ± 0.005 mm
same,"trabecular bone volume, trabecular number and thickness decreases in arthritis","SCW-arthritis rats; SCW-arthritis rats, GlcNBu 20 and 200 mg/kg/day, 2D and 3D images",corrected by GlcNBu treatment in a dose dependent manner
same,trabecular separation increase in SCW group,"SCW-arthritis rats; SCW-arthritis rats, GlcNBu treatment",significantly reduced
same,increase in metaphyseal trabecular volume from Group2 to the GlcNBu treated groups,"SCW-arthritis rats; SCW-arthritis rats, low and high dose groups, p<0.05",12%
